# Reference: publication PMC10517138, “Varied effects of tobacco smoke and e-cigarette vapor suggest that nicotine does not affect endothelium-dependent relaxation and nitric oxide signaling” (Scientific Reports, 2023)
# Target: T1, purified sGC (bovine lung soluble guanylyl cyclase) (Bos taurus, UniProt P16068)
# T1 construct: gene GUCY1B1; native enzyme purified from bovine lung; with Guanylate cyclase soluble subunit alpha-1
# T1 sequence (P16068 1-619): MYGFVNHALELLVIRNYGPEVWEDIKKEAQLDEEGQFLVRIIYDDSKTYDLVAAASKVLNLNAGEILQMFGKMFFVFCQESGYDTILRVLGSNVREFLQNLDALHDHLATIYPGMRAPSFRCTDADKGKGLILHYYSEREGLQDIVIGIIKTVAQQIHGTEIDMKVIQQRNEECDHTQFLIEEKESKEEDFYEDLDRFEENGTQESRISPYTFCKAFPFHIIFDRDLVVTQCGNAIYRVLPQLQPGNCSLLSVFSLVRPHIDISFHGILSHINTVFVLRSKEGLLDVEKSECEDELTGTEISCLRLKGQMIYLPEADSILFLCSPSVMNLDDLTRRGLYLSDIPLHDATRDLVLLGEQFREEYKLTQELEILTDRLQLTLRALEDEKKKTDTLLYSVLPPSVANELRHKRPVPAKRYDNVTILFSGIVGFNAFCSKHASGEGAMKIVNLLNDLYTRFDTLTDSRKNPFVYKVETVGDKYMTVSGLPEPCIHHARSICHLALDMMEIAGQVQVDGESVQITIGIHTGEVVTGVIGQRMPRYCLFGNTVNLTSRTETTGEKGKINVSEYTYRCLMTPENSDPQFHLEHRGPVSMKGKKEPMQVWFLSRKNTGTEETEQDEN
# T1 sequence (P19687 1-691 partner): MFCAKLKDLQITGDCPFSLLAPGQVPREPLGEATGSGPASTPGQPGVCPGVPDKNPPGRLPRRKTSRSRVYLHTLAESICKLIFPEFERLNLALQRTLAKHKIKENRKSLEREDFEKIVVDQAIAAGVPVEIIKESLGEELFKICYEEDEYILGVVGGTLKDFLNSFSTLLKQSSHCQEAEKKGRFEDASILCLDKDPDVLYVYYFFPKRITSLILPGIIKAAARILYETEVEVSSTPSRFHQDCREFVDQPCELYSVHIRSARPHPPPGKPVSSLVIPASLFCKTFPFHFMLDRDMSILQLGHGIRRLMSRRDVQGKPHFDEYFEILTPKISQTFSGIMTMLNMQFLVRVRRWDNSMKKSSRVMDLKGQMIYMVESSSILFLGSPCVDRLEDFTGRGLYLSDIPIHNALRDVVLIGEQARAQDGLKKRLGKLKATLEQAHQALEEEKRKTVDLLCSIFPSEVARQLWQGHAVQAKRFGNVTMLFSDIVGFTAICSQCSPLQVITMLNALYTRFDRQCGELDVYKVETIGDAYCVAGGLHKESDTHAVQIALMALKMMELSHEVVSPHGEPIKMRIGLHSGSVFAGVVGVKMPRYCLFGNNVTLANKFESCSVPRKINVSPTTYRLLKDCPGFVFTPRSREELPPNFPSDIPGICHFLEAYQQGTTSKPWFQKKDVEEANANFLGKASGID
# Assay: […]cGMP formation from [alpha-32P]GTP by purified sGC
# Format: biochemical
# Conditions: 0.5 mM GTP, 3 mM MgCl2, 1 mM cGMP, 0.5% Tween 20 (heme-depleted enzyme), TEA/HCl pH 7.4, 37 °C, no extract; NO-independent heme-site activator
compound,measurement,value
O=C(O)CCCCN(CCc1ccccc1OCc1ccc(CCc2ccccc2)cc1)Cc1ccc(C(=O)O)cc1 [cinaciguat],cGMP formation (activation),cGMP formation by Tween 20-treated sGC in the presence of the NO-independent heme-site activator cinaciguat
